Source: patent publication US20240175819A1, “DIAGNOSTIC TEST” (THE UNIVERSITY OF WARWICK, priority 2022, published 2024)

Test system: E. coli
Assay: Hydrogel biosensors with encapsulated antibiotic spiked with E. coli; inhibition of bacterial growth by antibiotic release (FIG. 6)
Assay type: cell-based
Conditions: antibiotic encapsulated within crosslinked hydrogel network, photographs
From the text: FIG. 6 is a series of photographs of biosensors each comprising a different antibiotic wherein bacterial growth is inhibited as a result of antibiotic release from the hydrogel network;
Referring now to FIG. 6, there is shown photographs of three biosensors 6A, 6B, 6C each comprising a different antibiotic encapsulated within the crosslinked hydrogel network. Biosensor 6A comprises the antibiotic chloramphenicol, biosensor 6B comprises the antibiotic kanamycin, and biosensor 6C comprises the antibiotic ampicillin. The biosensors 6A, 6B, 6C were spiked with E. coli. In each case, it is shown that there is antibacterial activity in the area surrounding the spiked portion of hydrogel. Therefore, in these cases, E. coli. is shown to be susceptible to the antibiotics encapsulated within the biosensors 6A, 6B, 6C.

SMILES | susceptibility of E. coli to the antibiotic encapsulated within the biosensor (antibacterial activity in the area surrounding the spiked portion of hydrogel)
CC1(C)S[C@@H]2[C@H](NC(=O)[C@H](N)c3ccccc3)C(=O)N2[C@H]1C(=O)O [ampicillin] | susceptible
O=C(N[C@H](CO)[C@H](O)c1ccc([N+](=O)[O-])cc1)C(Cl)Cl [chloramphenicol] | susceptible
